# Like-named read-outs stand apart in the source and are kept apart here.
# Columns and labels:
# [1] = system: P. falciparum 3D7 parasites; experiment: P. falciparum growth inhibition assay, 2-cycle (120 h treatment), delayed-death screen and dose-response; format: cell-based, Plasmodium falciparum; conditions: for activity at 2 µg/mL: Plasmodium falciparum, 3D7, 120 h
# [2] = system: T. gondii RH strain (RH-Tub-eYFP) tachyzoites; experiment: microbe, parasite or virus in culture; format: cell-based, Toxoplasma gondii; conditions: 72 h, 72 h; for percent parasite growth at 2 µg/mL: Toxoplasma gondii
# [3] = system: P. falciparum 3D7 parasites; experiment: P. falciparum growth inhibition assay, 1-cycle (72 h treatment), SYBR DNA staining (library screen at 2 μg/mL and dose-response); format: cell-based, Plasmodium falciparum; conditions: for activity at 2 µg/mL: Plasmodium falciparum, 3D7, 72 h
# [4] = P. falciparum 3D7, 120 h, library screen at 2 μg/mL, % growth, replicate 1
# [5] = P. falciparum 3D7, 120 h, library screen at 2 μg/mL, % growth, replicate 2
# [6] = T. gondii RH, library screen at 2 μg/mL, % growth, replicate 1
# [7] = T. gondii RH, library screen at 2 μg/mL, % growth, replicate 2
# [8] = P. falciparum 3D7, 72 h, library screen at 2 μg/mL, % growth, replicate 1
# [9] = P. falciparum 3D7, 72 h, library screen at 2 μg/mL, % growth, replicate 2
# [10] = library screen at 2 μg/mL, 120 h, % growth, replicate 1
# [11] = library screen at 2 μg/mL, 120 h, % growth, replicate 2
# [12] = library screen at 2 μg/mL, % growth, replicate 1
# [13] = library screen at 2 μg/mL, % growth, replicate 2
# [14] = library screen at 2 μg/mL, 72 h, % growth, replicate 1
# [15] = library screen at 2 μg/mL, 72 h, % growth, replicate 2
structure (smiles),measurement,setting,value
CC(=O)O[C@H]1C[C@@]2(C)[C@@H](C[C@@H](O)[C@H]3[C@@]4(C)CC[C@@H](O)[C@@H](C)[C@@H]4CC[C@@]32C)/C1=C(\CCC=C(C)C)C(=O)O [Fusidate sodium],activity at 2 µg/mL,"[1]; library screen at 2 μg/mL, 120 h, % growth, replicate 1, read-out: Pf_120h_%Growth_Rep1",91.2%
same,activity at 2 µg/mL,"[1]; library screen at 2 μg/mL, 120 h, % growth, replicate 2, read-out: Pf_120h_%Growth_Rep2",139%
same,percent parasite growth at 2 µg/mL,"[2]; library screen at 2 μg/mL, % growth, replicate 1, read-out: Tg_72h_%Growth_Rep1",111%
same,percent parasite growth at 2 µg/mL,"[2]; library screen at 2 μg/mL, % growth, replicate 2, read-out: Tg_72h_%Growth_Rep2",91.8%
same,activity at 2 µg/mL,"[3]; library screen at 2 μg/mL, 72 h, % growth, replicate 1, read-out: Pf_72h_%Growth_Rep1",87.5%
same,activity at 2 µg/mL,"[3]; library screen at 2 μg/mL, 72 h, % growth, replicate 2, read-out: Pf_72h_%Growth_Rep2",96%
CC(C=CC1OC(=O)C=CC1C)=CC(C)CC=CC(C)=CC(C)C(=O)C(C)C(O)C(C)CC(C)=CC(=O)O (stereo not drawn) [BIA-L1045],Pf_120h_%Growth_Rep1,[1]; [4],60.90%
same,Pf_120h_%Growth_Rep2,[1]; [5],15.41%
same,Tg_72h_%Growth_Rep1,[2]; [6],-0.52%
same,Tg_72h_%Growth_Rep2,[2]; [7],-0.11%
same,Pf_72h_%Growth_Rep1,[3]; [8],49.36%
same,Pf_72h_%Growth_Rep2,[3]; [9],24.76%
COC12c3c(C)cc(O)c4c(=O)occ(c34)C(=O)C1C13COC(=O)c4c(O)cc(C)c(c41)C(=O)C2C3OC(C)=O (stereo not drawn) [Duclauxin],Pf_120h_%Growth_Rep1,[1]; [10],87.90%
same,Pf_120h_%Growth_Rep2,[1]; [11],120.62%
same,Tg_72h_%Growth_Rep1,[2]; [12],149.61%
same,Tg_72h_%Growth_Rep2,[2]; [13],92.65%
same,Pf_72h_%Growth_Rep1,[3]; [14],87.43%
same,Pf_72h_%Growth_Rep2,[3]; [15],79.39%
C=C/C(C)=C/[C@H](C)C(=O)C[C@H](O)CC1CC(=O)NC(=O)C1 [Streptimidone],Pf_120h_%Growth_Rep1,"[1]; P. falciparum, 120 h, parasite screen 2 μg/mL, % growth, replicate 1",72.22%
same,Pf_120h_%Growth_Rep2,"[1]; P. falciparum, 120 h, parasite screen 2 μg/mL, % growth, replicate 2",22.01%
same,Tg_72h_%Growth_Rep1,"[2]; T. gondii, parasite screen 2 μg/mL, % growth, replicate 1",3.03%
same,Tg_72h_%Growth_Rep2,"[2]; T. gondii, parasite screen 2 μg/mL, % growth, replicate 2",2.79%
same,Pf_72h_%Growth_Rep1,"[3]; P. falciparum, 72 h, parasite screen 2 μg/mL, % growth, replicate 1",21.69%
same,Pf_72h_%Growth_Rep2,"[3]; P. falciparum, 72 h, parasite screen 2 μg/mL, % growth, replicate 2",38.20%
CN1C(=O)[C@]23CC4=CC=C[C@H](O)[C@H]4N2C(=O)[C@@]1(CO)SS3 [BIA-G1260],Pf_120h_%Growth_Rep1,[1]; [4],35.56%
same,Pf_120h_%Growth_Rep2,[1]; [5],25.95%
same,Tg_72h_%Growth_Rep1,[2]; [6],1.56%
same,Tg_72h_%Growth_Rep2,[2]; [7],0.82%
same,Pf_72h_%Growth_Rep1,[3]; [8],14.96%
same,Pf_72h_%Growth_Rep2,[3]; [9],8.82%
CN(CC[C@H](N)CC(=O)N[C@H]1C=C[C@H](n2ccc(N)nc2=O)O[C@@H]1C(=O)O)C(=N)N [Blasticidin S],activity at 2 µg/mL,"[1]; P. falciparum, 120 h, screen at 2 μg/mL, replicate 1, read-out: Pf_120h_%Growth_Rep1",5.52%
same,activity at 2 µg/mL,"[1]; P. falciparum, 120 h, screen at 2 μg/mL, replicate 2, read-out: Pf_120h_%Growth_Rep2",-7.54%
same,percent parasite growth at 2 µg/mL,"[2]; T. gondii, screen at 2 μg/mL, replicate 1, read-out: Tg_72h_%Growth_Rep1",73.3%
same,percent parasite growth at 2 µg/mL,"[2]; T. gondii, screen at 2 μg/mL, replicate 2, read-out: Tg_72h_%Growth_Rep2",30%
same,activity at 2 µg/mL,"[3]; P. falciparum, 72 h, screen at 2 μg/mL, replicate 1, read-out: Pf_72h_%Growth_Rep1",4.31%
same,activity at 2 µg/mL,"[3]; P. falciparum, 72 h, screen at 2 μg/mL, replicate 2, read-out: Pf_72h_%Growth_Rep2",2.87%
C=C1C(=O)O[C@H]2C(=O)O[C@H](CCCCCCCC)[C@@H]12 [Avenaciolide],Pf_120h_%Growth_Rep1,[1]; [10],53.72%
same,Pf_120h_%Growth_Rep2,[1]; [11],80.39%
same,Tg_72h_%Growth_Rep1,[2]; [12],102.05%
same,Tg_72h_%Growth_Rep2,[2]; [13],95.83%
same,Pf_72h_%Growth_Rep1,[3]; [14],79.34%
same,Pf_72h_%Growth_Rep2,[3]; [15],78.44%
Cn1c2ccccc2c(=O)c2c(O)cc3c(c21)C=CC(C)(C)O3 [BIA-N1949],Pf_120h_%Growth_Rep1,"[1]; P. falciparum 3D7, 120 h, parasite screen at 2 μg/mL, % growth, replicate 1",85.11%
same,Pf_120h_%Growth_Rep2,"[1]; P. falciparum 3D7, 120 h, parasite screen at 2 μg/mL, % growth, replicate 2",95.19%
same,Tg_72h_%Growth_Rep1,"[2]; T. gondii, parasite screen at 2 μg/mL, % growth, replicate 1",111.30%
same,Tg_72h_%Growth_Rep2,"[2]; T. gondii, parasite screen at 2 μg/mL, % growth, replicate 2",95.22%
same,Pf_72h_%Growth_Rep1,"[3]; P. falciparum 3D7, 72 h, parasite screen at 2 μg/mL, % growth, replicate 1",90.51%
same,Pf_72h_%Growth_Rep2,"[3]; P. falciparum 3D7, 72 h, parasite screen at 2 μg/mL, % growth, replicate 2",117.30%
COCCC[C@H]1O[C@@](O)([C@H](C)C2CC(OC)C(O)/C=C(C)/C=C(C)/C=C(/C)C(O[C@H]3O[C@H](C)[C@@H](OC)[C@H](O)[C@H]3O)C(C)/C=C(C)/C=C(OC)\C=C(/C)C(=O)O2)[C@H](OC)[C@@H](O)[C@]1(C)O[C@H]1C[C@H](O)[C@H](O[C@H]2C[C@@](C)(O)[C@H](O)[C@@H](C)O2)[C@@H](C)O1 (stereo partly drawn) [Amycolatopsin B],Pf_120h_%Growth_Rep1,[1]; [10],16.58%
same,Pf_120h_%Growth_Rep2,[1]; [11],9.62%
same,Tg_72h_%Growth_Rep1,[2]; [12],0.29%
same,Tg_72h_%Growth_Rep2,[2]; [13],0.85%
same,Pf_72h_%Growth_Rep1,[3]; [14],44.61%
same,Pf_72h_%Growth_Rep2,[3]; [15],41.71%

# From article PMC12396409, “Screening and hit evaluation of a microbial metabolite library against the pathogenic Plasmodium falciparum and Toxoplasma gondii parasites” (International Journal for Parasitology: Drugs and Drug …, 2025)
